Measurements reported in patent publication US6479531B1, “Gastrin and cholecystokinin receptor ligands” (James Black Foundation Limited, priority 1998, dated 2002).

Key:
[1] = target: T1, CCKB receptor (Mus musculus, UniProt P56481); assay: CCKB receptor radioligand binding assay in mouse cortical membranes; conditions: [125I]-CCK8(S) 200 pM, 150 min at 21±3°, read-out: CCKB pKi (converted)
T1 construct: The whole brains from male mice (CD1 22-25 g; Charles River) were removed; from tissue; host or cells: cerebral cortex membranes of male CD1 mice
T1 sequence (P56481 1-453): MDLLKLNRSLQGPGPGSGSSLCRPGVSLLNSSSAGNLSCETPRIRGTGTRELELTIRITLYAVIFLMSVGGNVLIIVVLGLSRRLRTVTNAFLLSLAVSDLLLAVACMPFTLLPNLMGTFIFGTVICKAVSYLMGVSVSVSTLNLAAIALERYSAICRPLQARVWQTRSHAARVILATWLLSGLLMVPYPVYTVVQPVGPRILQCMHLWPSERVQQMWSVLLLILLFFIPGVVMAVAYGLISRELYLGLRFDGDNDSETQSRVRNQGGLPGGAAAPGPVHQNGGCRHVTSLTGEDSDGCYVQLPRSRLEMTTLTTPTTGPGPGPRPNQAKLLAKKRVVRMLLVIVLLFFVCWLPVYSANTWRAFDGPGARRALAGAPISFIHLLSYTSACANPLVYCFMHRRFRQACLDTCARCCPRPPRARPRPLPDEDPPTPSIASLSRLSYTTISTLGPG
Procedure, shortened: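 Bound radioactivity was gamma-counted after rapid GF/B filtration and cold 50 mM Tris-HCl (pH 7.4) washes. The tissue was cerebral cortex from male CD1 mice, prepared as twice-centrifuged membranes in pH 7.2 HEPES/NaCl/KCl/MgCl2/EDTA buffer with bacitracin at 20 mg/ml original wet weight.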

[2] = target: T2, gastrin receptor (Rattus norvegicus, UniProt P30553); assay: gastrin antagonist activity in immature rat stomach assay (pentagastrin dose-response, acid secretion); conditions: isolated immature rat stomach, cumulative pentagastrin dose-response curves, read-out: Gastrin pKb (converted)
T2 construct: The stomach was excised and flushed with ca. 1 ml of unbuffered physiological saline solution; from tissue; host or cells: isolated whole stomach of immature rats (ca. 21 days old)
T2 sequence (P30553 1-452): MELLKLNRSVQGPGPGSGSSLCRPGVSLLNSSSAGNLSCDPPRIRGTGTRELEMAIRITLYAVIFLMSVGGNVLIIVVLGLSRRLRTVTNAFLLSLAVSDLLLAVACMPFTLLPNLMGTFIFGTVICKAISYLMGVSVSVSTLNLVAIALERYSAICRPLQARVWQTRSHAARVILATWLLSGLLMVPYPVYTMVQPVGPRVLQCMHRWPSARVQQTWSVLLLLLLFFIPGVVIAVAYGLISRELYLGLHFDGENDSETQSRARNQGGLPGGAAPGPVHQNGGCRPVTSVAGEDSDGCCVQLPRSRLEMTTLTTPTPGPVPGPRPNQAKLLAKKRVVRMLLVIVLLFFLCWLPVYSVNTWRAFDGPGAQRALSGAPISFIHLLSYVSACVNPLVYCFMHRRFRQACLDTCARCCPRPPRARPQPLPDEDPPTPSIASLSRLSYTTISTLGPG
Procedure, shortened: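 Isolated, lumen-perfused stomach from immature rats (33-50 g, ca. 21 days) in a 37° organ bath with 3×10^−8 M 5-methylfurmethide, gassed 95% O2/5% CO2. Compound added serosally after 120 min stabilisation; cumulative pentagastrin dose-response curves begun 60 min later, acid secretion followed by perfusate pH.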

Row | Ki [1] [nM] | Kb [2] [nM] | SMILES
1 | 309 | 813 | O=C(O)c1cccc(NC(=O)c2nc(-c3ccc(F)cc3)[nH]c2CCC23CC4CC(CC(C4)C2)C3)c1 [Example 54, 3-{[5-(2-Adamantan-1-yl-ethyl)-2-(4-fluoro-phenyl)-1H-imidazole-4-carbonyl]-amino}-benzoic Acid]
2 | 646 | 229 | O=C(O)c1cccc(NC(=O)c2nc(-c3cccc(F)c3)[nH]c2CCC23CC4CC(CC(C4)C2)C3)c1 [Example 55, 3-{[5-(2-Adamantan-1-yl-ethyl)-2-(3-fluoro-phenyl)-1H-imidazole-4-carbonyl]-amino}-benzoic Acid]
3 | 240 | 18.2 | O=C(O)c1cccc(NC(=O)c2nc(-c3ccccc3C(F)(F)F)[nH]c2CCC23CC4CC(CC(C4)C2)C3)c1 [Example 56, 3-{[5-(2-Adamantan-1-yl-ethyl)-2-(2-trifluoromethyl-phenyl)-1H-imidazole-4-carbonyl]-amino}-benzoic Acid]
4 | 120 | 58.9 | Cc1ccccc1-c1nc(C(=O)Nc2cccc(C(=O)O)c2)c(CCC23CC4CC(CC(C4)C2)C3)[nH]1 [Example 57, 3-{[5-(2-Adamantan-1-yl-ethyl)-2-o-tolyl-1H-imidazole-4-carbonyl]-amino}-benzoic Acid]
5 | 794 | 22.9 | COc1ccccc1-c1nc(C(=O)Nc2cccc(C(=O)O)c2)c(CCC23CC4CC(CC(C4)C2)C3)[nH]1 [Example 58, 3-{[5-(2-Adamantan-1-yl-ethyl)-2-(2-methoxy-phenyl)-1H-imidazole-4-carbonyl]-amino}-benzoic Acid]
6 | 251 | 57.5 | O=C(O)c1cccc(NC(=O)c2nc(-c3ccccc3Br)[nH]c2CCC23CC4CC(CC(C4)C2)C3)c1 [Example 59, 3-{[5-(2-Adamantan-1-yl-ethyl)-2-(2-bromo-phenyl)-1H-imidazole-4-carbonyl]-amino}-benzoic Acid]
7 | 141 | 7.76 | O=C(O)c1cccc(NC(=O)c2nc(-c3ccc(F)cc3F)[nH]c2CCC23CC4CC(CC(C4)C2)C3)c1 [Example 60, 3-{[5-(2-Adamantan-1-yl-ethyl)-2-(2,4-difluoro-phenyl)-1H-imidazole-4-carbonyl]-amino}-benzoic Acid]
8 | 148 | 31.6 | O=C(O)c1cccc(NC(=O)c2nc(-c3c(F)cccc3F)[nH]c2CCC23CC4CC(CC(C4)C2)C3)c1 [Example 61, 3-{[5-(2-Adamantan-1-yl-ethyl)-2-(2,6-difluoro-phenyl)-1H-imidazole-4-carbonyl]-amino}-benzoic Acid]
9 | 389 | 1200 | O=C(O)c1cccc(NC(=O)c2nc(-c3cccc(O)c3)[nH]c2CCC23CC4CC(CC(C4)C2)C3)c1 [Example 62, 3-{[5-(2-Adamantan-1-yl-ethyl)-2-(3-hydroxy-phenyl)-1H-imidazole-4-carbonyl]-amino}-benzoic Acid]
10 | 1100 | 1620 | O=C(O)c1cccc(NC(=O)c2nc(-c3ccc(O)cc3)[nH]c2CCC23CC4CC(CC(C4)C2)C3)c1 [Example 63, 3-{[5-(2-Adamantan-1-yl-ethyl)-2(4-hydroxy-phenyl)-1H-imidazole-4-carbonyl]-amino}-benzoic Acid]
11 | 56.2 | 100 | Cc1cccc(C)c1-c1nc(C(=O)Nc2cccc(C(=O)O)c2)c(CCC23CC4CC(CC(C4)C2)C3)[nH]1 [Example 65, 3-{[5-(2-Adamantan-1-yl-ethyl)-2-(2,6-dimethyl-phenyl)-1H-imidazole-4-carbonyl]-amino}-benzoic Acid]
12 | 200 | 55 | Cc1ccc(C)c(-c2nc(C(=O)Nc3cccc(C(=O)O)c3)c(CCC34CC5CC(CC(C5)C3)C4)[nH]2)c1 [Example 66, 3-{[5-(2-Adamantan-1-yl-ethyl)-2-(2,5-dimethyl-phenyl)-1H-imidazole-4-carbonyl]-amino}-benzoic Acid]
13 | 83.2 | 10 | Cc1ccc(-c2nc(C(=O)Nc3cccc(C(=O)O)c3)c(CCC34CC5CC(CC(C5)C3)C4)[nH]2)c(C)c1 [Example 67, 3-{[5-(2-Adamantan-1-yl-ethyl)-2-(2,4-dimethyl-phenyl)-1H-imidazole-4-carbonyl]-amino}-benzoic Acid]
14 | 398 | 89.1 | O=C(O)c1cccc(NC(=O)c2nc(-c3cccc(Cl)c3Cl)[nH]c2CCC23CC4CC(CC(C4)C2)C3)c1 [Example 69, 3-{[5-(2-Adamantan-1-yl-ethyl)-2-(2,3-dichloro-phenyl)-1H-imidazole-4-carbonyl]-amino}-benzoic Acid]
15 | 186 | 794 | CN(C)c1cccc(-c2nc(C(=O)Nc3cccc(C(=O)O)c3)c(CCC34CC5CC(CC(C5)C3)C4)[nH]2)c1 [Example 71, 3-{[5-(2-Adamantan-1-yl-ethyl)-2-(3-dimethylamino-phenyl)-1H-imidazole-4-carbonyl]-amino}-benzoic Acid]
16 | 295 | 1230 | CN(C)c1ccc(-c2nc(C(=O)Nc3cccc(C(=O)O)c3)c(CCC34CC5CC(CC(C5)C3)C4)[nH]2)cc1 [Example 72, 3-{[5-(2-Adamantan-1-yl-ethyl)-2-(4-dimethylamino-phenyl)-1H-imidazole-4-carbonyl]-amino}-benzoic Acid]
17 | 417 | 6.61 | Cc1ccccc1-c1nc(C(=O)Nc2cccc(C(=O)O)c2)c(CCC23CC4CC(CC(C4)C2)C3)n1C [Example 73, 3-{[5-(2-Adamantan-1-yl-ethyl)-1-methyl-2-o-tolyl-1H-imidazole-4-carbonyl]-amino}-benzoic Acid]
18 | 324 | 25.7 | Cc1ccccc1-c1nc(CCC23CC4CC(CC(C4)C2)C3)c(C(=O)Nc2cccc(C(=O)O)c2)n1C [Example 74, 3-{[5-(2-Adamantan-1-yl-ethyl)-3-methyl-2-o-tolyl-3H-imidazole-4-carbonyl]-amino}-benzoic Acid]
19 | 200 | 263 | Cc1ccccc1-c1nc(NC(=O)Nc2cccc(C(=O)O)c2)c(CCC23CC4CC(CC(C4)C2)C3)[nH]1 [Example 75, 3-{3-[5-(2-Adamantan-1-yl-ethyl)-2-o-tolyl-1H-imidazol-4-yl]-ureido}-benzoic Acid]
20 | 186 | 20.9 | CC(C)c1nc(C(=O)Nc2cccc(C(=O)O)c2)c(CCC23CC4CC(CC(C4)C2)C3)[nH]1 [Example 78, 3-{[5-(2-Adamantan-1-yl-ethyl)-2-isopropyl-1H-imidazole-4-carbonyl]-amino}-benzoic Acid]
21 | 11.7 | 5.37 | O=C(O)c1cccc(NC(=O)c2[nH]c(C3CCCCCC3)nc2CCC23CC4CC(CC(C4)C2)C3)c1 [Example 79, 3-{[5-(2-Adamantan-1-yl-ethyl)-2-cycloheptyl-1H-imidazole-4-carbonyl]-amino}-benzoic Acid]
22 | 67.6 | 11 | CC(C)(C)c1nc(C(=O)Nc2cccc(C(=O)O)c2)c(CCC23CC4CC(CC(C4)C2)C3)[nH]1 [Example 80, 3-{[5-(2-Adamantan-1-yl-ethyl)-2-tert-butyl-1H-imidazole-4-carbonyl]-amino}-benzoic Acid]
23 | 269 | 52.5 | CCCc1nc(C(=O)Nc2cccc(C(=O)O)c2)c(CCC23CC4CC(CC(C4)C2)C3)[nH]1 [Example 81, 3-{[5-(2-Adamantan-1-yl-ethyl)-2-propyl-1H-imidazole-4-carbonyl]-amino}-benzoic Acid]
24 | 1.02 | 162 | O=C(O)Cc1cccc(NC(=O)c2nc(C3CCCCC3)[nH]c2CCC23CC4CC(CC(C4)C2)C3)c1 [Example 84, (3-{[5-(2-Adamantan-1-yl-ethyl)-2-cyclohexyl-1H-imidazole-4-carbonyl]-amino}-phenyl)-acetic Acid]
25 | 1020 | 741 | O=C(O)c1cccc(NC(=O)c2nc(CC34CC5CC(CC(C5)C3)C4)[nH]c2CCc2ccccc2)c1 [Example 86, 3-[(2-Adamantan-1-ylmethyl-5-phenethyl-1H-imidazole-4-carbonyl)-amino]-benzoic Acid]
